Data set [1] has as its system Candida albicans ATCC 64548. Description: In vitro antifungal assay, broth microdilution (MIC/MFC), C. albicans. The class given is cell-based. Conditions: ATCC64548, SDA plates, 37 °C, 48 h. Here is the method:
The broth microdilution method was used to assess the antifungal susceptibility of free AMB, and ZnO, ZnO-AMB, and ZnO-AMB-PEG nanoparticles against Candida albicans ATCC 64548 and Cryptococcus neoformans ATCC 90112 according to the Clinical Laboratory and Standards Institute Guidelines (CLSI, 2015). The nanoparticle solutions were serially diluted in sterile saline to obtain dilutions ranging from 5.0 to 0.00625 µg/mL. Aliquots (100 µL) from different dilutions of different preparations were transferred to the wells of 96-well microtiter plate. Fresh cultures of the tested strains were suspended in RPMI 1640 provided with L-glutamine and MOPS at pH 7.0 to prepare suspensions with a turbidity approximating that of 0.5 McFarland Standard. The fungal suspensions were diluted 1:100 with RPMI 1640 to obtain cell density of 1 × 10^5 CFU/mL. Of the prepared fungal suspensions, 100 µL was added to all dilutions of nanoparticle preparations. […] The minimum inhibitory concentration (MIC) was considered as the lowest concentration that inhibited the visible turbidity. The experiment was repeated six times and both positive control (inoculated fungi in broth without any addition) and negative control (sterile broth without fungi) were included in the experiment. The minimum fungicidal concentration (MFC) was determined according to [23].
(Broth dilution looks for growth in wells or tubes with falling amounts of substance.)

Data set [2] deals with Cryptococcus neoformans ATCC 90112. Description: In vitro antifungal assay, broth microdilution (MIC/MFC), C. neoformans. Type of data set: cell-based. As to the method: The broth microdilution method was used to assess the antifungal susceptibility of free AMB, and ZnO, ZnO-AMB, and ZnO-AMB-PEG nanoparticles against Candida albicans ATCC 64548 and Cryptococcus neoformans ATCC 90112 according to the Clinical Laboratory and Standards Institute Guidelines (CLSI, 2015). The nanoparticle solutions were serially diluted in sterile saline to obtain dilutions ranging from 5.0 to 0.00625 µg/mL. Aliquots (100 µL) from different dilutions of different preparations were transferred to the wells of 96-well microtiter plate. Fresh cultures of the tested strains were suspended in RPMI 1640 provided with L-glutamine and MOPS at pH 7.0 to prepare suspensions with a turbidity approximating that of 0.5 McFarland Standard. The fungal suspensions were diluted 1:100 with RPMI 1640 to obtain cell density of 1 × 10^5 CFU/mL. Of the prepared fungal suspensions, 100 µL was added to all dilutions of nanoparticle preparations. The microtiter plates were incubated at 37 °C for 24 h for C. albicans, and 48 h for C. neoformans. The minimum inhibitory concentration (MIC) was considered as the lowest concentration that inhibited the visible turbidity. […] The minimum fungicidal concentration (MFC) was determined according to [23].

The subject of data set [3] is Male Wistar rats. Description: In vivo toxicity: hematological parameters after injection. The arrangement: species or system rat. The following applies: 10 mg/kg intraperitoneal for seven days, blood on eighth day. Here is the method: (§1) Male Wistar rats weighing 180–220 g were used in this study. The animals were housed in rooms with controlled temperature (23 ± 1 °C) and relative humidity (55 ± 5%) and were allowed free access to water and food during acclimatization. Animals were fasted for 24 h before the experiments but could drink water ad libitum. The animal study protocol was approved by the Ethical Committee, Pharmacy College, Prince Sattam Bin Abdulaziz University, Al-Kharj, KSA (approval number: PHARM-11-10-2021).
(§2) Blood parameters including count of leucocytes (WBC) and red blood cell (RBC), and hemoglobin concentration (Hb), and hemocrit percentage were employed to evaluate the hematological toxicity associated with AMB. Furthermore, the kidney functions were assessed by measuring blood urea nitrogen (BUN) and serum creatinine. Hepatic functions were evaluated by the measure of aspartate transaminase (AST) and alanine transaminase (ALT). Four groups of male Wistar rats, each composed of 5 rats weighing approximately 200 g were used in this study. Three groups were intraperitoneally injected with free AMB, ZnO-AMB or ZnO-AMB-PEG (10 mg/kg body weight) for a continuous seven days. The fourth group was left uninjected as control group. On the eighth day, all rats were anesthetized and euthanized by decapitation for hematological and biochemical assays.

Data set [4] concerns Male Wistar rats. Description: In vivo toxicity: biochemical parameters (kidney and liver functions) after injection. Details: species or system rat. The following applies: 10 mg/kg intraperitoneal for seven days, eighth day. As to the method:
as §1, §2

Molecules are shown by their SMILES. In brackets after ≈: the same amount, converted by molar mass.

The term MFC denotes the lowest tested concentration that kills the fungus rather than only halting it. Higher therefore signals less potent killing. Usually MIC stands for the least concentration at which growth counts as inhibited. Higher therefore signals a less susceptible organism. `C[C@@H]1[C@H](O)[C@@H](C)/C=C/C=C/C=C/C=C/C=C/C=C/C=C/[C@H](O[C@@H]2O[C@H](C)[C@@H](O)[C@H](N)[C@@H]2O)C[C@@H]2O[C@](O)(C[C@@H](O)C[C@@H](O)[C@H](O)CC[C@@H](O)C[C@@H](O)CC(=O)O[C@H]1C)C[C@H](O)[C@H]2C(=O)O` [AMB, Amphotericin B] had an MFC in data set [1] of 0.6 µg/mL (≈ 0.649 µM). This molecule also returned an MIC in data set [2] (ATCC90112, RPMI 1640, 37 °C, 48 h) of 0.05 µg/mL (≈ 0.0541 µM). In addition, the MFC in data set [2] (ATCC90112, SDA plates, 37 °C, 72 h) amounted to 0.4 µg/mL (≈ 0.433 µM). In addition, in the data set on Male Wistar rats [3], the Hb is given as 13.22 ± 0.95 g%, the Hematocrit came to 37.01 ± 2.68%, the RBCs is listed as 7.09 ± 0.61 ×10^6/μL and the WBCs is 17.90 ± 2.46 ×10^3/μL. For the same molecule, in the data set with Male Wistar rats [4], the “Kidney Functions BUN” value worked out at 66.52 ± 12.46 mg%, the “Kidney Functions Creatinine” value was 0.63 ± 0.11 mg%, the “Liver Functions ALT” value turned out to be 100.49 ± 20.95 IU/L and the “Liver Functions AST” value turned out to be 453.15 ± 120.19 IU/L.

Values taken from paper PMC9415822, “Amphotericin B-PEG Conjugates of ZnO Nanoparticles: Enhancement Antifungal Activity with Minimal Toxicity” (Pharmaceutics, 2022).
